# Measurements published in ChEMBL document CHEMBL1141615, “Targeting RNA with cysteine-constrained peptides” (Bioorg Med Chem Lett, 2008).
# Assay: Binding affinity to BIV transactivating response element RNA
# Parameters: species or system Bovine immunodeficiency virus
row,Kd,Structure (SMILES)
1,9.1 µM,C[C@@H](O)[C@@H]1NC(=O)[C@H](CO)NC(=O)[C@H](Cc2c[nH]c3ccccc23)NC(=O)[C@H](CCC(N)=O)NC(=O)[C@H](Cc2cnc[nH]2)NC(=O)[C@H]([C@@H](C)O)NC(=O)[C@@H](N)CSSC[C@H](C(N)=O)NC(=O)[C@H](CCCCN)NC1=O
2,7.9 µM,C[C@@H](O)[C@@H]1NC(=O)CNC(=O)[C@@H](N)CSSC[C@H](C(N)=O)NC(=O)[C@H](CCC(N)=O)NC(=O)[C@@H]2CCCN2C(=O)[C@H](Cc2c[nH]cn2)NC(=O)[C@H](Cc2cnc[nH]2)NC(=O)[C@H](Cc2c[nH]c3ccccc23)NC1=O
